Patent publication US12503451B2, “2-arylthiazole derivative or salt thereof, preparation method therefor, and pharmaceutical composition comprising same” (HEXAPHARMATEC CO., LTD., priority 2020, dated 2025)

Columns and labels:
[1] = tested on: dimethylnitrosamine (DMN)-induced liver injury male SD rats; assay: Liver function-improving activities by oral administration in the liver injury model (1); assay type: in vivo, rat; settings: 25 mg/kg oral once a day with DMN
Description: The compounds according to the present invention were orally administered to dimethylnitrosamine (DMN)-induced liver injury male SD rats for 3 weeks, so as to evaluate liver function-improving activities. Specifically, 7-week-old male SD rats (Orient Bio, Korea) were accommodated to the laboratory environment at room temperature for 7 days. General symptoms were observed and then only healthy animals were used for the experiment. […] DMN was dissolved in purified water and then administered intraperitoneally at the dose of 10 mg/kg for 3 consecutive days per week (3 times per week, for 4 weeks). […] The collected blood was injected into a vacutainer tube containing a clot activator and then allowed to stand at room temperature for about 20 minutes so as to coagulate each blood sample. After centrifugation for 10 minutes, the resulting serums were subjected to blood-biochemical tests. The results obtained from the measurements were subject to group comparison, through parametric multiple comparisons or non-parametric multiple comparisons, with SPSS. When P<0.05, it was determined to be statistically significant.

[2] = tested on: dimethylnitrosamine (DMN)-induced liver injury male SD rats; assay: Liver function-improving activities by oral administration in the liver injury model (2); assay type: in vivo, rat; settings: for Inhibitory activity against liver fibrosis (in words) / Degenerative hepatocyte numbers / Inflammatory cell numbers / Collagen fiber occupied regions: 25 mg/kg oral 4 weeks; for Inhibitory activity against liver fibrosis (in words): histology; for Degenerative hepatocyte numbers / Inflammatory cell numbers: H&E staining of liver; for Degenerative hepatocyte numbers / Inflammatory cell numbers / Collagen fiber occupied regions: autopsy 24 hours after last administration; for Collagen fiber occupied regions: Masson's trichrome staining of liver
Description: Specifically, 7-week-old male SD rats (Orient Bio, Korea) were accommodated to the laboratory environment at room temperature for 7 days. General symptoms were observed and then only healthy animals were used for the experiment. The rats were divided into 5 groups (n=10 for each group), i.e., the normal control group, the group to which only DMN is administered, and the group to which both the compound of the present invention (the compound of Example 23, 26, or 29) and DMN are administered. DMN was dissolved in purified water and then administered intraperitoneally at the dose of 10 mg/kg for 3 consecutive days per week (3 times per week, for 4 weeks). Blood samples were collected after the completion of the fourth-week liver injury inducement and then the serum ALT (Alanine Transaminase) values and the serum AST (Aspartate Transaminase) values were measured so as to confirm the liver injury thereof. […] Blood samples were collected on Day 0 (1 day after the completion of the fourth-week liver injury inducement) and Day 7, 14, 21 and 28 after the administration of the test materials. The collected blood was injected into a vacutainer tube containing a clot activator and then allowed to stand at room temperature for about 20 minutes so as to coagulate each blood sample. After centrifugation for 10 minutes, the resulting serums were subjected to blood-biochemical tests. In addition, at 24 hours after the last administration, an autopsy for hepatectomy and fixation was performed to prepare the tissue specimens thereof. After preparing the slides with the tissue specimens, hematoxylin and eosin (H&E) staining was performed thereon for microscopic observation of damages to liver tissue and inflammatory cell infiltrations in liver tissues. In addition, Masson's trichrome staining was also performed thereon for microscopic observation of collagen fiber depositions in liver tissues. The results obtained from the measurements were subject to group comparison, through parametric multiple comparisons or non-parametric multiple comparisons, with SPSS. When P<0.05, it was determined to be statistically significant. […] Therefore, it can be confirmed that the compounds of the present invention have excellent treating activity against liver fibrosis. […] From the results of FIG. 4, the degrees of damage to liver tissue and inflammatory cell infiltration in liver tissues were measured. And also, from the results of FIG. 4, the degree of collagen fiber deposition in liver tissues was measured.

N2a cells = assay: Autophagy flux by electron microscope imaging; assay type: cell-based, mouse; settings: 10 μM; 24 hours
Description: N2a cells (ATCC, CCL-131, mouse neuroblastoma cell line) (3×10^4 cells) and a medium (DMEM (Dulbecco's modified Eagle's medium, Gibco, 11995-065) supplemented with 5% heat-inactivated fetal bovine serum, FBS; Gibco, 16000-044) and 50 μg/ml penicillin-streptomycin (Gibco, 15140-122) were added to each well of a 6-well plate and incubated overnight at 37° C. in a CO2 incubator. The compound of Example 29 (5 μM) and rapamycin (10 μM) were respectively treated and then incubated at 37° C. in a CO2 incubator for 24 hours. Three wells per each group were subject to electron microscope block formation and then pre-fixation, post-fixation, dehydration, substitution, and embedding were carried out according to a flat-embedding method. After ultra-thin sections having a thickness of 70 nm were prepared, heavy metal staining (uranyl acetate, lead citrate) was carried out on the each section, which was photographed through a mosaic imaging technique for imaging the entire cells. In addition, the results obtained by measuring the numbers of the total autophagies (autophagic vesicles), autophagosomes, and autolysosomes per cell according to the treatment groups are shown in Table 3 below. In Table 3 below, the control means the untreated control.

[3] = tested on: primary mouse cortical neuron cells; assay: Autophagic vesicle formation (CYTO-ID Autophagy Detection Kit); assay type: cell-based; settings: 10 μM; 24 hours; untreated control = 1
Description: Autophagy lysosomal pathway (ALP) activation by the compounds of the present invention was verified, through measuring the degree of autophagic vesicle formation in neuron cells with the CYTO-ID™ Autophagy Detection Kit (ENZ-51031-K200, Enzo Life Sciences, Inc.). Neuron cells (i.e., primary mouse cortical neuron cells) were isolated from mice using an enzymatic digest method. Specifically, primary mouse cortical neuron cells were isolated by incubating the cortice tissues derived from 16 day embryonic C57BL6 mice, at 37° C. for 30 minutes, with 20 U/ml papain (Worthington Biochemical Corporation, LK003176) and 0.005% DNase I (Worthington Biochemical Corporation, LK003170).
The primary mouse cortical neuron cells (8×10^4 cells) and a medium (a neural cell culture media containing 2 mM L-glutamine (Gibco, 25030-081), N2 supplement (Gibco, 17502-048), B27 supplement (Gibco, 17504-044), and 50 μg/ml penicillin-streptomycin (Gibco, 15140-122)) were added to each well of a 96-well plate and then incubated overnight at 37° C. in a CO2 incubator. The compound of Example 10 (5 μM), the compound of Example 29 (5 μM), and rapamycin (10 μM) were respectively treated to the cells, which were incubated at 37° C. in a CO2 incubator for 24 hours. After each well was washed with 1×Assay Buffer (Enzo Life Science, ENZ-51031-K200), 0.2 μl of Cyto-ID autophagy dye and 0.1 μl of Hoechst 33342 were treated to the cells, which were incubated at 37° C. in a CO2 incubator for 30 minutes. After each well was washed with 1×Assay Buffer (Enzo Life Science, ENZ-51031-K200), the fluorescence values of Cyto-ID (EX: 480 nm, EM: 530 nm) and Hoechst 33342 (EX: 340 nm, EM: 480 nm) were respectively measured with a fluorometer. Three wells were tested for each group. After normalization was carried out through dividing the Cyto-ID fluorescence value of each well by Hoechst 33342 fluorescence value, each relative intensity was calculated by setting that of the untreated control to 1.

[4] = 0 week (Day 0, before administration)
[5] = 0 week (Day 0, after 4 weeks DMN, before administration)
[6] = 1 week, 25 mg/kg oral once a day after 4 weeks DMN
[7] = 2 weeks, 25 mg/kg oral once a day after 4 weeks DMN
[8] = 3 weeks, 25 mg/kg oral once a day after 4 weeks DMN
[9] = 4 weeks, 25 mg/kg oral once a day after 4 weeks DMN

Compound | ALT values (average value) [1, 4] [U/L] | AST values (average value) [1, 4] [U/L] | ALT values (average value) ([1]; 1 week) [U/L] | AST values (average value) ([1]; 1 week) [U/L] | ALT values (average value) ([1]; 2 weeks) [U/L] | AST values (average value) ([1]; 2 weeks) [U/L] | ALT values (average value) ([1]; 3 weeks) [U/L] | AST values (average value) ([1]; 3 weeks) [U/L] | ALT values (average value) [2, 5] [U/L] | AST values (average value) [2, 5] [U/L] | Inhibitory activity against liver fibrosis (in words) [2] | ALT values (average value) [2, 6] [U/L] | AST values (average value) [2, 6] [U/L] | ALT values (average value) [2, 7] [U/L] | AST values (average value) [2, 7] [U/L] | ALT values (average value) [2, 8] [U/L] | AST values (average value) [2, 8] [U/L] | ALT values (average value) [2, 9] [U/L] | AST values (average value) [2, 9] [U/L] | Degenerative hepatocyte numbers [2] [cells/1000 cells] | further results
Cc1nc(-c2ccc(OCC(C)C)c(C#N)c2)sc1C(=O)NCCN(C(C)C)C(C)C.Cl [Example 2, N-(2-(diisopropylamino)ethyl)-2-(3-cyano-4-isobutoxyphenyl)-4-methylthiazole-5-carboxamide hydrochloride] | 70.76 | 138.50 | 93.68 | 180.72 | 107.06 | 218.90 | 117.02 | 231.54 | – | – | – | – | – | – | – | – | – | – | – | – | –
CCN(CC)CCOc1ccc(-c2nc(C)c(C(=O)NCCN(C(C)C)C(C)C)s2)cc1C#N.Cl.Cl [Example 23, N-(2-(diisopropylamino)ethyl)-2-(4-(2-diethylamino)ethoxy-3-cyanophenyl)-4-methylthiazole-5-carboxamide hydrochloride] | 67.64 | 145.10 | 94.40 | 208.56 | 97.64 | 221.58 | 101.04 | 203.44 | 198.30 | 395.34 | excellent inhibitory activity against liver fibrosis | 104.22 | 169.11 | 65.66 | 140.57 | 60.95 | 128.30 | 52.93 | 125.15 | 319.14 ± 44.66 | Inflammatory cell numbers [2]: 101.43 ± 16.53 cells/mm^2; Collagen fiber occupied regions [2]: 12.44 ± 2.03 %/mm^2
CCN(CC)CCOc1ccc(-c2nc(C)c(C(=O)NCCN3CCOCC3)s2)cc1C#N.Cl.Cl [Example 26, N-(2-(4-morpholino)ethyl)-2-(4-(2-diethylamino)ethoxy-3-cyanophenyl)-4-methylthiazole-5-carboxamide hydrochloride] | – | – | – | – | – | – | – | – | 199.51 | 322.72 | excellent inhibitory activity against liver fibrosis | 134.97 | 153.48 | 70.09 | 145.71 | 62.81 | 138.76 | 59.12 | 114.45 | 259.14 ± 42.56 | AST value compared with the normal control group (in words) ([2]; 4 weeks after the administration, 25 mg/kg oral): equivalent to that of the normal control group; Inflammatory cell numbers [2]: 90.00 ± 20.67 cells/mm^2; Collagen fiber occupied regions [2]: 10.75 ± 2.17 %/mm^2
CO[C@H]1C[C@@H]2CC[C@@H](C)[C@@](O)(O2)C(=O)C(=O)N2CCCC[C@H]2C(=O)O[C@H]([C@H](C)C[C@@H]2CC[C@@H](O)[C@H](OC)C2)CC(=O)[C@H](C)/C=C(\C)[C@@H](O)[C@@H](OC)C(=O)[C@H](C)C[C@H](C)/C=C/C=C/C=C/1C [Rapamycin, rapamycin, reference compound] | – | – | – | – | – | – | – | – | – | – | – | – | – | – | – | – | – | – | – | – | Numbers of the autophagy per cell: Autolysosome (N2a cells): 7.6; Numbers of the autophagy per cell: Autophagic vesicles (N2a cells): 13.3; Numbers of the autophagy per cell: Autophagosome (N2a cells): 4.1; Cyto-ID fluorescence value (relative intensity) [3]: 1.668
